The subject of data set [1] is H69 (human small cell lung cancer, Rb-negative) cells. Briefly: CellTiter-Glo cellular proliferation assay, H69. The format is cell-based. The settings on record: NCI-H69, 96 h, four days. Here is the method:
(§1) Cellular proliferation assays were conducted using the following Rb-negative cancer cell lines: H69 (human small cell lung cancer—Rb-negative) cells or A2058 (human metastatic melanoma cells—Rb-negative). These cells were seeded in Costar (Tewksbury, Mass.) 3093 96 well tissue culture treated white walled/clear bottom plates. Cells were treated Formulas I, II, III, or IV as nine point dose response dilution series from 10 uM to 1 nM. Cells were exposed to compounds and then cell viability was determined after either four (H69) or six (A2058) days as indicated using the CellTiter-Glo® luminescent cell viability assay (CTG; Promega, Madison, Wis., United States of America) following the manufacturer's recommendations. Plates were read on BioTek (Winooski, Vt.) Syngergy2 multi-mode plate reader. The Relative Light Units (RLU) were plotted as a result of variable molar concentration and data was analyzed using Graphpad (LaJolla, Californaia) Prism 5 statistical software to determine the EC50 for each compound.

Data set [2] relates to A2058 (human metastatic melanoma cells, Rb-negative). As to the kind of experiment: CellTiter-Glo cellular proliferation assay, A2058. The settings on record: A2058, 144 h, six days. The format is cell-based. On the procedure:
as §1

Data set [3] deals with HS68 cells. As to the kind of experiment: G1 arrest (cellular G1 and S-phase) assay, propidium iodide flow cytometry. The format is cell-based. The conditions noted are these: Homo sapiens. On the procedure: For determination of cellular fractions in various stages of the cell cycle following various treatments, HS68 cells (human skin fibroblast cell line (Rb-positive)) were stained with propidium iodide staining solution and run on Dako Cyan Flow Cytometer. The fraction of cells in G0-G1 DNA cell cycle versus the fraction in S-phase DNA cell cycle was determined using FlowJo 7.2.2 analysis.
Formulas I, II, III, and IV were tested for their ability to arrest HS68 cells at the G1 phase of the cell cycle.

Data set [4] has as its system HSPC. As to the kind of experiment: PK half-life and HSPC cell cycle arrest of PD0332991 in humans. The format is in vivo.
Protocol: When calculated half-life was longer than the duration of the experiment, the half-life was expressed as > the longest incubation time. The calculated half-life is also listed in parentheses.
Data set [5] has as its system CDK4/6 independent Rb-null melanoma cell line A2058. The conditions noted are these: cited from earlier work.
The test system of data set [6] is CDK4/6-dependent cell lines. The settings on record: cited from earlier work.
Data set [7] relates to RB-negative SCLC cell lines (H69, H82, H209, H345, NCI417, SHP-77). Briefly: Proliferation by EdU incorporation, RB-negative SCLC cell lines. The settings on record: 24 hours; PD0332991 300 nM, Formula I and III 300 nM or 1000 nM. The data set is classed as cell-based. Here is the method:
(§2) SCLC cells were treated with DMSO or the indicated CDK4/6 inhibitor for 24 hours. The effect of CDK4/6 inhibition on proliferation was measured by EdU incorporation. An RB-intact, CDK4/6-dependent cell line (WM2664 or tHS68) and a panel of RB-negative SCLC cell lines (H69, H82, H209, H345, NCI417, or SHP-77) were analyzed for growth inhibition by the various CDK4/6 inhibitors.

Data set [8] relates to WM2664 or tHS68. Briefly: Proliferation by EdU incorporation, RB-intact CDK4/6-dependent cell line. The format is cell-based. The conditions noted are these: 24 hours; WM2664 for PD0332991 (300 nM), tHS68 for Formula I and III (300 nM or 1000 nM). On the procedure: as §2
In data set [9] the test system is HSPC (LKS+) and myeloid progenitor cells (LKS−). The conditions noted are these: single dose 150 mg/kg oral gavage, mice; cited from earlier work.
Data set [10] concerns human renal proximal tubule epithelial cells (Rb-positive). Briefly: Cellular wash-out experiment, renal cells. The data set is classed as cell-based. The conditions noted are these: 300 nM. Here is the method:
Alternatively, the same experiment was done using normal Renal Proximal Tubule Epithelial Cells (Rb-positive) obtained from American Type Culture Collection (ATCC, Manassas, Va.). Cells were grown in an incubator at 37° C. in a humidified atmosphere of 5% CO2 in Renal Epithelial Cell Basal Media (ATCC) supplemented with Renal Epithelial Cell Growth Kit (ATCC) in 37° C. humidified incubator.
Upon harvesting cells, samples were stained with propidium iodide staining solution and samples run on Dako Cyan Flow Cytometer. The fraction of cells in G0-G1 DNA cell cycle versus the fraction in S-phase DNA cell cycle was determined using FlowJo 7.2.2 analysis.

Data set [11] has as its system HSPC. The settings on record: in humans; cited from earlier work.
The test system of data set [12] is mice exposed to peri-lethal and lethal TBI. The conditions noted are these: compared to untreated controls; cited from earlier work.
The conditions of data set [13]: Grade 3/4 neutropenia and leukopenia; cited from earlier work.

Where only a bound is given, the exact number is not on record here.

With `O=C1NCC2(CCCCC2)n2c1cc1cnc(Nc3ccc(N4CCC(N5CCOCC5)CC4)cn3)nc12` [Formula IV, 2′-((5-(4-morpholinopiperidin-1-yl)pyridin-2-yl)amino)-7′,8′-dihydro-6′H-spiro[cyclohexane-1,9′-pyrazino[1′,2′:1,5]pyrrolo[2,3-d]pyrimidin]-6′-one], the EC50 in data set [1] was more than 3000 nM; in [2], more than 3000 nM; in data set [3], 25 nM.

Consider `O=C1NCC2(CCCCC2)n2c1cc1cnc(Nc3ccc(N4CCNCC4)cn3)nc12` [Formula II, 2′-((5-(piperazin-1-yl)pyridin-2-yl)amino)-7′,8′-dihydro-6′H-spiro[cyclohexane-1,9′-pyrazino[1′,2′:1,5]pyrrolo[2,3-d]pyrimidin]-6′-one], for which the EC50 is more than 3000 nM in data set [1], 2610 nM in data set [2] and 100 nM in [3].

Regarding `CC(=O)c1c(C)c2cnc(Nc3ccc(N4CCNCC4)cn3)nc2n(C2CCCC2)c1=O` [PD0332991, 6-acetyl-8-cyclopentyl-5-methyl-2-(5-piperazin-1-yl-pyridin-2-ylammino)-8H-pyrido-[2,3-d]-pyrimidin-7-one], the “total time for normal bone marrow function to return” value in data set [4] is given as not below 7 days. Also, in [4] (5 half-lives × 27 hour half-life), the “time to clear the compound” value is 6 days. Further, the “duration of cell cycle arrest of HSPC” value in data set [4] (single administration) is “approximately one week”. Further, in data set [5], the G1 arrest result is “did not G1 arrest” and the “protection from IR exposure” value was “failed to protect”. For the same compound, the IR protection result in [6] is recorded as “exhibited IR protective characteristics”. For the same compound, the “effect on growth (cells in S phase, EdU) of Rb-negative SCLC cell lines” value in data set [7] is recorded as “does not affect the growth”. For the same compound, in [8], the “effect on proliferation (cells in S phase, EdU) of Rb-positive cell line” value was “inhibits”. Besides, in data set [9], the “duration of sustained reduction in HSPC (LKS+) and myeloid progenitor (LKS−) EdU incorporation” value is on record as “greater than 36 hours”; the “time post oral dosing of return to baseline cell division” value was 48 h. Further, the “return to baseline levels of cell division after wash out” value in data set [10] is listed as “took significantly longer to return to baseline levels of cell division”. In [11], the PK half-life is 27 h. In addition, in data set [12], the “HSPC protection and survival after TBI” value was “protect HSPCs and improve survival of mice”. In addition, in data set [13], the “patients requiring a dose interruption” value is 71% and the “patients requiring a dose reduction” value is 35%.

Turning to `CC(C)N1CCN(c2ccc(Nc3ncc4cc5n(c4n3)C3(CCCCC3)CNC5=O)nc2)CC1` [Formula III, 2′-((5-(4-isopropylpiperazin-1-yl)pyridin-2-yl)amino)-7′,8′-dihydro-6′H-spiro[cyclohexane-1,9′-pyrazino[1′,2′:1,5]pyrrolo[2,3-d]pyrimidin]-6′-one], the EC50 was 2920 nM in data set [1], 2690 nM in data set [2] and 80 nM in [3]. The “effect on growth (cells in S phase, EdU) of Rb-negative SCLC cell lines” value in data set [7] is on record as “does not affect the growth”. The “effect on proliferation (cells in S phase, EdU) of Rb-positive cell line” value in data set [8] was “inhibits”.
